# The supplement of paper PMC11208160
# Experiment: recombinant UMI read abundance after kanamycin selection (control-corrected) (log10(CPM+1)); higher = more efficient recombination; extreme values may be limits of the assay; sequences stand for … in AGTGCAGAGAAAATCGGCCAGTTTTCTCTGCCTGCAGTCCGCATGCCGTGGGACCCCTTGGGTTCTAACCTGTTGCCTAGATTTATGCAGCGGACTGCCTTTCTCCCAAAGTGATAAACCGG…AGGTTGGTTTCACT; site = the 11-nt donor
# How it was run: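 The measure is log10(CPM+1) for recombinant UMIs. These were PCR-amplified across the donor–target junction and sequenced after Escherichia coli carrying a donor and donor-binding-loop pair library and a target plasmid with T7-inducible IS621 bridge recombinase was plated on IPTG (0.07 mM) plus kanamycin or unselected. CPM were averaged over two replicates and scaled by control-derived factors.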
# 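Also: IS621 bridge recombinase in Escherichia coli cells against a fixed T5 target plasmid.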
row,Sequence,recombinant UMI read abundance (log10)
1,ACGTGGACATGGACCGGTTTTCCCGGTAATCCGTATTTGTG (site ACGTGGACTCA),1.53
2,ACGTTAGCATGGACCGGTTTTCCCGGTAATCCGTATTTGAT (site ACGTTAGCTAT),2.62
3,ACTAAACCATGGACCGGTTTTCCCGGTAATCCGTATTTGCG (site ACTAAACCTCG),0
4,ACTAAATCATGGACCGGTTTTCCCGGTAATCCGTATTTGGC (site ACTAAATCTGC),0.218
5,ACTAATACATGGACCGGTTTTCCCGGTAATCCGTATTTGGC (site ACTAATACTGC),0.399
6,ACTAATACATGGACCGGTTTTCCCGGTAATCCGTATTTGGC (site CCTAATACTGC),0
7,ACTAATACATGGACCGGTTTTCCCGGTAATCCGTATTTGGC (site GCTAATACTGC),1.02
8,ACTAATACATGGACCGGTTTTCCCGGTAATCCGTATTTGGC (site TCTAATACTGC),1.03
9,ACTACAACATGGACCGGTTTTCCCGGTAATCCGTATTTGTG (site ACTACAACTCA),0.339
10,ACTACTGCATGGACCGGTTTTCCCGGTAATCCGTATTTGGT (site ACTAATGCTAC),0.0144
11,ACTACTGCATGGACCGGTTTTCCCGGTAATCCGTATTTGGT (site ACTACTGCTAC),0.247
12,ACTACTGCATGGACCGGTTTTCCCGGTAATCCGTATTTGGT (site ACTAGTGCTAC),0.0166
13,ACTACTGCATGGACCGGTTTTCCCGGTAATCCGTATTTGGT (site ACTATTGCTAC),0.00304
14,ACTAGCACATGGACCGGTTTTCCCGGTAATCCGTATTTGAG (site ACTAGAACTCT),0.495
15,ACTAGCACATGGACCGGTTTTCCCGGTAATCCGTATTTGAG (site ACTAGCACTCT),1.48
16,ACTAGCACATGGACCGGTTTTCCCGGTAATCCGTATTTGAG (site ACTAGGACTCT),0.0266
17,ACTAGCACATGGACCGGTTTTCCCGGTAATCCGTATTTGAG (site ACTAGTACTCT),0.517
18,ACTAGCTCATGGACCGGTTTTCCCGGTAATCCGTATTTGTT (site ACTAGCTCTAA),0.346
19,ACTAGGACATGGACCGGTTTTCCCGGTAATCCGTATTTGCT (site ACTAGGACTAG),2.36

row,Sequence,recombinant UMI read abundance (log10)
1,ACTAGGGCATGGACCGGTTTTCCCGGTAATCCGTATTTGAG (site ACTAGGGCTCT),1.52
2,ACTAGTGCATGGACCGGTTTTCCCGGTAATCCGTATTTGAT (site ACTAGTGCTAA),0.0209
3,ACTAGTGCATGGACCGGTTTTCCCGGTAATCCGTATTTGAT (site ACTAGTGCTAC),0.0203
4,ACTAGTGCATGGACCGGTTTTCCCGGTAATCCGTATTTGAT (site ACTAGTGCTAG),0.00388
5,ACTAGTGCATGGACCGGTTTTCCCGGTAATCCGTATTTGAT (site ACTAGTGCTAT),2.1
6,ACTAGTGCATGGACCGGTTTTCCCGGTAATCCGTATTTGCT (site ACTAGTGCTAA),0.335
7,ACTAGTGCATGGACCGGTTTTCCCGGTAATCCGTATTTGCT (site ACTAGTGCTAC),0.00908
8,ACTAGTGCATGGACCGGTTTTCCCGGTAATCCGTATTTGCT (site ACTAGTGCTAG),1.37
9,ACTAGTGCATGGACCGGTTTTCCCGGTAATCCGTATTTGCT (site ACTAGTGCTAT),0.0101
10,ACTATTCCATGGACCGGTTTTCCCGGTAATCCGTATTTGGT (site ACTATTCCTAC),0.00382
11,ACTCAACCATGGACCGGTTTTCCCGGTAATCCGTATTTGGT (site ACTCAACCTAC),0.00884
12,ACTCCGCCATGGACCGGTTTTCCCGGTAATCCGTATTTGTG (site ACTCCGCCTCA),0.0108
13,ACTCCGTCATGGACCGGTTTTCCCGGTAATCCGTATTTGAT (site ACTCCGTCTAT),0.697
14,ACTCGCACATGGACCGGTTTTCCCGGTAATCCGTATTTGAC (site ACTCGCACTGT),2.68
15,ACTCGGTCATGGACCGGTTTTCCCGGTAATCCGTATTTGTT (site ACTCGGTCTAA),0.936
16,ACTCGTGCATGGACCGGTTTTCCCGGTAATCCGTATTTGAC (site ACTCGTGCTGT),2.56
17,ACTCGTGCATGGACCGGTTTTCCCGGTAATCCGTATTTGAG (site ACTCGTGCTCT),1.4
18,ACTCTTTCATGGACCGGTTTTCCCGGTAATCCGTATTTGTT (site ACTCTTTCTAA),0.0432
19,ACTGAGGCATGGACCGGTTTTCCCGGTAATCCGTATTTGAA (site ACTGAGGCTTT),1.73

row,Sequence,recombinant UMI read abundance (log10)
1,ACTGCAGCATGGACCGGTTTTCCCGGTAATCCGTATTTGCA (site ACTGCAGCTTG),1.21
2,ACTGTACCATGGACCGGTTTTCCCGGTAATCCGTATTTGCA (site ACAGTATCTTG),0.00951
3,ACTGTACCATGGACCGGTTTTCCCGGTAATCCGTATTTGCA (site ACTGTACCTTG),0
4,ACTGTGTCATGGACCGGTTTTCCCGGTAATCCGTATTTGAC (site AATGTGTCTGT),0
5,ACTGTGTCATGGACCGGTTTTCCCGGTAATCCGTATTTGAC (site ACTGTGTCTGT),0
6,ACTGTGTCATGGACCGGTTTTCCCGGTAATCCGTATTTGAC (site AGTGTGTCTGT),0
7,ACTGTGTCATGGACCGGTTTTCCCGGTAATCCGTATTTGAC (site ATTGTGTCTGT),0
8,ACTTAATCATGGACCGGTTTTCCCGGTAATCCGTATTTGTA (site ACTTAATCTTA),2.15
9,ACTTAGTCATGGACCGGTTTTCCCGGTAATCCGTATTTGCC (site ACTTAGTCTGG),2.47
10,ACTTATGCATGGACCGGTTTTCCCGGTAATCCGTATTTGGA (site AATTATGCTTC),0.425
11,ACTTATGCATGGACCGGTTTTCCCGGTAATCCGTATTTGGA (site ACTTATGCTTC),1.41
12,ACTTATGCATGGACCGGTTTTCCCGGTAATCCGTATTTGGA (site AGTTATGCTTC),0.698
13,ACTTATGCATGGACCGGTTTTCCCGGTAATCCGTATTTGGA (site ATTTATGCTTC),0.623
14,ACTTCCGCATGGACCGGTTTTCCCGGTAATCCGTATTTGTT (site ACTTCCGCTAA),1.5
15,ACTTCTCCATGGACCGGTTTTCCCGGTAATCCGTATTTGAT (site ACTTCTCCTAT),0.78
16,ACTTGAACATGGACCGGTTTTCCCGGTAATCCGTATTTGAG (site ACTAGAACTCT),0.0666
17,ACTTGAACATGGACCGGTTTTCCCGGTAATCCGTATTTGAG (site ACTCGAACTCT),0.999
18,ACTTGAACATGGACCGGTTTTCCCGGTAATCCGTATTTGAG (site ACTGGAACTCT),1.23
19,ACTTGAACATGGACCGGTTTTCCCGGTAATCCGTATTTGAG (site ACTTGAACTCT),0.998
